Laboratory results as given in paper PMC5958115, “A novel small molecule chaperone of rod opsin and its potential therapy for retinal degeneration” (Nature Communications, 2018).
Where two headings read alike, the source gives them in different places.

Experiments:
bovine opsin = biological target: T1, bovine opsin (Bos taurus, UniProt P02699); experiment: Ligand-binding assay by Trp fluorescence quenching, opsin in ROS disc membranes; conditions: 20 °C, mean of three biological repeats ± s.d.; for EC50: read-out: EC50 of Trp fluorescence quenching at 330 nm (ΔF/F0)
T1 construct: ROS membranes were isolated from bovine retinas under dim red light; from tissue; host or cells: bovine retina, rod outer segment (ROS) disc membranes, bleached with hydroxylamine
Procedure: ROS membranes were isolated from bovine retinas under dim red light. To remove membrane associated proteins, ROS membranes were washed with a hypotonic buffer composed of 5 mM bis-tris propane (BTP) and 1 mM EDTA, pH 7.5, followed by gentle homogenization with subsequent centrifugation at 25,000×g for 30 min. This procedure was repeated four times. The final membrane pellet was suspended in 10 mM sodium phosphate buffer, pH 7.0, and 50 mM hydroxylamine to a 3 mg mL^−1 concentration of rhodopsin, placed on ice and illuminated with a 150 Watt bulb for 30 min. Membranes were pelleted by centrifugation at 16,000×g for 5 min and then washed four times with 10 mM sodium phosphate buffer, pH 7.0, and 2% bovine serum albumin followed by 4 washes with 10 mM sodium phosphate buffer, pH 7.0, and two washes with 20 mM BTP, pH 7.5, and 100 mM NaCl. The concentration of opsin was measured with a UV–visible spectrophotometer and quantified using the absorption coefficient ε280 nm = 81,200 M^−1 cm^−1[64].
Emission spectra were recorded with a PerkinElmer L55 Luminescence Spectrophotometer at 20 °C between 300 and 450 nm after excitation at 295 nm, with excitation and emission slit bands set at 5 and 10 nm, respectively. Changes in Trp fluorescence (ΔF/F0; where ΔF is the difference between the initial Trp fluorescence recorded at 330 nm (F0) and Trp fluorescence recorded at 330 nm at a specified YC-001 concentration) were plotted as a function of the ligand concentration. Binding curves were fitted by the Hill function using Origin software for each compound and the EC50 was calculated. All experimental data were corrected for background and self-absorption of excitation and emission light (inner filter effect).

mouse P23H-opsin mutant = mouse P23H-opsin mutant (Mus musculus, UniProt P15409, P23H); experiment: β-Gal fragment complementation assay: rescue of P23H opsin transport from ER to plasma membrane, U2OS(PLC-EA/P23H-PK) cells; assay type: cell-based; conditions: for β-Gal fragment complementation assay Activity score (%) Max (fit) / Efficacy: 24 h, 5 µM 9-cis-retinal = 100%, from curve fitting; for dependence of activity on light: cells exposed to light vs dark; for Efficacy (%): normalized to 5 µM 9-cis-retinal
Source text: U2OS(PLC-EA/P23H-PK) cells. A U2OS stable cell line was generated by DiscoveRx, Inc. (Fremont, CA, USA) for the β-Gal fragment complementation assay used in the small-molecule HTS for rescue of P23H-opsin transport. U2OS cells that continually express P23H-PK and PLC-EA fusion proteins were generated. Briefly, this small subunit of β-Gal (PK fragment) was fused to the C-terminal of the mouse P23H-opsin mutant, while the large EA fragment, a subunit of β-Gal, was fused with PLC, a plasma membrane-anchored peptide. Both constructs were subcloned by DicoveRx, Inc. and transferred into U2OS cells by viral infections. Positive clones were selected under treatment with hygromycin and geneticin.
Briefly, U2OS(PLC-EA /P23H-PK) cells were suspended in assay medium at 3 × 10^5 cells mL^−1. The cell suspension was dispensed into 384-well plates (Greiner Bio-one, Monroe, NC, USA) at 20 µL per well, with a Multidrop dispenser (Thermo Scientific, Waltham, MA, USA). Plates with cells then were centrifuged at 200×g for 15 s before incubation at 37 °C with 5% CO2. Plates were removed 24 h later for treatment with tested compounds. A total of 248 plates containing 79,080 compounds from three small-molecule libraries were paired with an equal number of assay plates with cultured cells. Owing to a limited capacity, these plates were assayed in seven batches. An average of 56.3 nL of 10 mM compound in DMSO was dispensed into each well from column 3 to 22 of paired assay plates using a 50 nL 384-pintool system, such that the final concentration of each compound was 22.52 µM on average. […] Each assay plate was shaken for 5 s before further incubation at 37 °C with 5% CO2. After 24 h, assay plates were removed, and each well was incubated with 25 µL of 1× Gal-Screen assay buffer (1:24 substrate-buffer ratio). Assay plates were incubated in the dark for 60–90 min, and luminescence was read from each assay plate with an Envision microplate reader (PerkinElmer) during a 0.1 s per well integration time. The mean and s.d. of readouts in column 2 of each plate were calculated as Mean0% and SD0%, whereas the average and s.d. of readouts in column 23 were calculated as Mean100% and SD100%. Eq. 1: Activity scores (%) = (RLUcp − Mean0%)/(Mean100% − Mean0%) × 100%, where RLUcp is the relative luminescence unit derived for cells treated with a compound. Eq. 2: Z′-factor = 1–3 × (SD0% + SD100%)/(Mean100% − Mean0%)[32]; Eq. 3: signal-to-background (S/B) ratio = Mean100%/Mean0%. Activities of all tested compounds were registered with their compound ID by GeneData Screener (Genedata, Basel, Switzerland) and Pipeline Pilot software (Accelrys, San Diego, CA, USA). Hits, cherry-picked from a separate stock dose-dependent activity test, were selected with an activity score cutoff at 20%. Activity of each hit was tested again with the β-Gal fragment complementation assay in a 10-dose series with each dose tested in triplicate. The 10 doses tested were 80, 40, 20, 10, 5, 2.5, 1.25, 0.625, 0.313, and 0.156 µM. Dose-dependent curves of each hit compound were fitted with GeneData and Origin software.
Detailed synthetic steps are described in Supplementary Note and Supplementary Fig. 9. […] YC-002-YC-021 were purchased from commercial vendors including Enamine LLC (Monmouth Jct., NJ, USA), Matrix Scientific (Columbia, SC, USA) and Tokyo Chemical Industry Co., Ltd. (Portland, OR, USA). […] Activities of YC compounds were tested with the β-Gal fragment complementation assay, as described in a prior section. All YC compounds were tested at 10 doses, each in triplicate: 80, 40, 20, 10, 5, 2.5, 1.25, 0.625, 0.313, and 0.156 µM.

[1] = 24 h preincubation, activity standardized to 5 µM 9-cis-retinal as 100%, Hill fit, read-out: β-Gal fragment complementation assay Activity score (%) EC50

T1 sequence (P02699 whole entry): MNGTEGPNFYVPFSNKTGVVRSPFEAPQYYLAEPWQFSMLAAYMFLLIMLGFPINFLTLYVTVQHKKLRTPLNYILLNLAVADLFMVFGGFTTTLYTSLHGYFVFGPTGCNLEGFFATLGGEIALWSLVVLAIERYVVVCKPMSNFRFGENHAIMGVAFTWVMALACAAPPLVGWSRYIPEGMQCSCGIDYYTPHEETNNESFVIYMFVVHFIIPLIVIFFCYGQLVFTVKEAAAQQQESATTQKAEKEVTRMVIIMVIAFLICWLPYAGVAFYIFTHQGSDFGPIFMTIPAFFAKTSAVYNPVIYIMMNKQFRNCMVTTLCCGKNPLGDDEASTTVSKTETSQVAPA

β-Gal fragment complementation assay Activity score (%) Max (fit) / Efficacy (mouse P23H-opsin mutant) [%] | EC50 (mouse P23H-opsin mutant; [1]) [µM] | EC50 of Trp fluorescence quenching at 330 nm (ΔF/F0) (bovine opsin) | SMILES | EC50 (bovine opsin) [µM] | dependence of activity on light (mouse P23H-opsin mutant) | efficacy, % of the control activity score (mouse P23H-opsin mutant; HTS hits, variability between experiments) | effect of co-treatment with 9-cis-retinal (mouse P23H-opsin mutant; YC-001 dose series together with 5 µM 9-cis-retinal) | Efficacy (%) (mouse P23H-opsin mutant; modifications at C4) | EC50 (mouse P23H-opsin mutant; modifications linked to C3 of the furan-2(5H)-one ring, 10 doses 0.156-80 µM, read-out: Potency EC50) [µM] | Efficacy (%) (mouse P23H-opsin mutant; modifications of the furan-2(5H)-one ring) | Efficacy (%) (mouse P23H-opsin mutant; more than one site modified) | time to maximum activity (mouse P23H-opsin mutant; time course, Fig. 1f) [h] | activity in rescuing P23H-opsin transport (in words) (mouse P23H-opsin mutant)
159 | 2.7 | – | CC1=C(/C=C/C(C)=C\C=C\C(C)=C\C=O)C(C)(C)CCC1 [9-cis-retinal, reference compound] | 1.2 ± 0.1 | required that cells be incubated in the dark | – | – | – | – | – | – | – | –
98.2 | 3.09 | did not affect Trp fluorescence | O=C(CCCCCN1C(=O)c2cccc3cccc(c23)C1=O)NO [Scriptaid, reference compound] | – | – | – | – | – | – | – | – | – | strong activity in rescuing P23H opsin transport

SMILES | β-Gal fragment complementation assay Activity score (%) Max (fit) / Efficacy (mouse P23H-opsin mutant) [%] | EC50 (mouse P23H-opsin mutant; [1]) [µM] | EC50 of Trp fluorescence quenching at 330 nm (ΔF/F0) (bovine opsin) | EC50 (bovine opsin) [µM] | dependence of activity on light (mouse P23H-opsin mutant) | efficacy, % of the control activity score (mouse P23H-opsin mutant; HTS hits, variability between experiments) | effect of co-treatment with 9-cis-retinal (mouse P23H-opsin mutant; YC-001 dose series together with 5 µM 9-cis-retinal) | Efficacy (%) (mouse P23H-opsin mutant; modifications at C4) | EC50 (mouse P23H-opsin mutant; modifications linked to C3 of the furan-2(5H)-one ring, 10 doses 0.156-80 µM, read-out: Potency EC50) [µM] | Efficacy (%) (mouse P23H-opsin mutant; modifications of the furan-2(5H)-one ring) | Efficacy (%) (mouse P23H-opsin mutant; more than one site modified) | time to maximum activity (mouse P23H-opsin mutant; time course, Fig. 1f) [h] | activity in rescuing P23H-opsin transport (in words) (mouse P23H-opsin mutant)
O=C1OCC(c2ccc(Cl)s2)=C1c1cccs1 [YC-001] | 310 | 8.7 | – | 0.98 ± 0.05 | not affected | 150–310% | No additive effect | 248 | 8.39 | 248 | 248 | ≤ 15 | –
